From patent US12590108B2, “Boracic acid compound” (Phaeno Therapeutics Co., Ltd, priority 2020, dated 2026)

Tests used:
[1] = system: Klebsiella pneumoniae ATCC BAA-1705; assay: Mouse lung infection model, bacterial load; type: in vivo, CD-1 female mice; conditions: endpoint 12 h
Description: (§1) 36 CD-1 female mice were divided into 12 cages with 3 […] in each cage. The day of infection was denoted as day 0.
(§2) Immunosuppressant cyclophosphamide at 150 mg/kg was injected intraperitoneally on day −4 and immunosuppressant cyclophosphamide at 100 mg/kg was injected intraperitoneally on day −1 to induce immunodeficient mice.
On day −1, the strain Klebsiella pneumoniae ATCC BAA-1705 was resuscitated on an MHA plate. Resuscitated colonies were picked and dissolved in sterile physiological saline to prepare a bacterial solution with a concentration of 2.75E+08 CFU/mL for lung infection by nasal drip. The initial time of infection was denoted as 0 h, and 50 μL of the bacterial solution was injected into each mouse by nasal drip at 0 h, that is, the inoculation amount was 1.38E+07 CFU/mouse. 2 h after infection, dosing was performed according to the experimental scheme. The specific experimental scheme was as follows (see Table 6): • (1) 2 h after infection: for the 1st cage of mice, at the endpoint, lung tissue was taken and placed in 10 mL of sterile physiological saline, the tissue was homogenized by a homogenizer, and the homogenate was diluted in a gradient and spotted in a plate, with two replicates for each mouse. • (2) 2 h after infection: the 2nd to 12th cages were respectively treated at 10 mL/kg by volume according to the body weight of the mice, the 2nd cage of mice were given a vehicle by intravenous injection every 2 h, and the endpoint was 12 h; the 3rd cage of mice were given 100 mg/kg of meropenem by intravenous injection every 2 h, and the endpoint was 12 h; the 4th cage of mice were given 100 mg/kg of meropenem and 20 mg/kg of QPX7728 by intravenous injection every 2 h, and the endpoint was 12 h; the 5th cage of mice were given 100 mg/kg of meropenem and 100 mg/kg of compound 15 by intravenous injection every 2 h, and the endpoint was 12 h; the 6th cage of mice were given 100 mg/kg of meropenem and 20 mg/kg of compound 15 by intravenous injection every 2 h, and the endpoint was 12 h; the 7th cage of mice were given 100 mg/kg of meropenem and 4 mg/kg of compound 15 by intravenous injection every 2 h, and the endpoint was 12 h; the 8th cage of mice were given 100 mg/kg of cefepime by intravenous injection every 2 h, and the endpoint was 12 h; the 9th cage of mice were given 100 mg/kg of cefepime and 20 mg/kg of QPX7728 by intravenous injection every 2 h, and the endpoint was 12 h; the 10th cage of mice were given 100 mg/kg of cefepime and 100 mg/kg of compound 15 by intravenous injection every 2 h, and the endpoint was 12 h: the 11th cage of mice were given 100 mg/kg of cefepime and 20 mg/kg of compound 15 by intravenous injection every 2 h, and the endpoint was 12 h; and the 12th cage of mice were given 100 mg/kg of cefepime and 4 mg/kg of compound 15 by intravenous injection every 2 h, and the endpoint was 12 h. At the endpoint, lung tissue was taken and placed in 10 mL of sterile physiological saline, the tissue was homogenized by a homogenizer, and the homogenate was diluted in a gradient and spotted in a plate, with two replicates for each mouse. The bacterial load in the lung tissue of the mice was counted, and the experiment was summarized as follows (see Table 7): […]

[2] = system: Klebsiella pneumoniae ATCC BAA-1705; assay: Mouse thigh muscle infection model, bacterial load; type: in vivo, CD-1 female mice; conditions: endpoint 12 h
Description: as §1, §2
On day −1, the strain Klebsiella pneumoniae ATCC BAA-1705 was resuscitated on an MHA plate. Resuscitated colonies were picked and dissolved in sterile physiological saline to prepare a bacterial solution with a concentration of 5.6E+07 CFU/mL for thigh muscle infection in mice. The initial time of infection was denoted as 0 h, and 100 μL of the bacterial solution was injected into each mouse at the thigh muscle at 0 h, that is, the inoculation amount was 5.6E+06 CFU/mouse. 2 h after infection, dosing was performed according to the experimental scheme. The specific experimental scheme was as follows (see Table 4): • (1) 2 h after infection: for the 1st cage of mice, at the endpoint, thigh muscle tissue was taken and placed in 10 mL of sterile physiological saline, the tissue was homogenized by a homogenizer, and the homogenate was diluted in a gradient and spotted in a plate, with two replicates for each mouse. • (2) 2 h after infection: the 2nd to 12th cages were respectively treated at 10 mL/kg by volume according to the body weight of the mice, the 2nd cage of mice were given a vehicle by intravenous injection every 2 h, and the endpoint was 12 h; the 3rd cage of mice were given 100 mg/kg of meropenem by intravenous injection every 2 h, and the endpoint was 12 h; the 4th cage of mice were given 100 mg/kg of meropenem and 20 mg/kg of QPX7728 by intravenous injection every 2 h, and the endpoint was 12 h; the 5th cage of mice were given 100 mg/kg of meropenem and 100 mg/kg of compound 15 by intravenous injection every 2 h, and the endpoint was 12 h; the 6th cage of mice were given 100 mg/kg of meropenem and 20 mg/kg of compound 15 by intravenous injection every 2 h, and the endpoint was 12 h; the 7th cage of mice were given 100 mg/kg of meropenem and 4 mg/kg of compound 15 by intravenous injection every 2 h, and the endpoint was 12 h; the 8th cage of mice were given 100 mg/kg of cefepime by intravenous injection every 2 h, and the endpoint was 12 h; the 9th cage of mice were given 100 mg/kg of cefepime and 20 mg/kg of QPX7728 by intravenous injection every 2 h, and the endpoint was 12 h; the 10th cage of mice were given 100 mg/kg of cefepime and 100 mg/kg of compound 15 by intravenous injection every 2 h, and the endpoint was 12 h; the 11th cage of mice were given 100 mg/kg of cefepime and 20 mg/kg of compound 15 by intravenous injection every 2 h, and the endpoint was 12 h; and the 12th cage of mice were given 100 mg/kg of cefepime and 4 mg/kg of compound 15 by intravenous injection every 2 h, and the endpoint was 12 h. At the endpoint of 12 h, thigh muscle tissue was taken and placed in 10 mL of sterile physiological saline, the tissue was homogenized by a homogenizer, and the homogenate was diluted in a gradient and spotted in a plate, with two replicates for each mouse. The bacterial load in the thigh muscle tissue of the mice was counted, and the experiment was summarized as follows (see Table 5): […]

[3] = cefepime 100 mg/kg + inhibitor 4 mg/kg i.v. q2h
[4] = cefepime 100 mg/kg + inhibitor 20 mg/kg i.v. q2h
[5] = cefepime 100 mg/kg + inhibitor 100 mg/kg i.v. q2h
[6] = meropenem 100 mg/kg + inhibitor 4 mg/kg i.v. q2h
[7] = meropenem 100 mg/kg + inhibitor 20 mg/kg i.v. q2h
[8] = meropenem 100 mg/kg + inhibitor 100 mg/kg i.v. q2h
[9] = antibiotic alone 100 mg/kg i.v. q2h

Compound	Average CFU in mice (lung tissue) [1, 3] [CFU/mouse]	Average CFU in mice (lung tissue) [1, 4] [CFU/mouse]	Average CFU in mice (lung tissue) [1, 5] [CFU/mouse]	Average CFU in mice (lung tissue) [1, 6] [CFU/mouse]	Average CFU in mice (lung tissue) [1, 7] [CFU/mouse]	Average CFU in mice (lung tissue) [1, 8] [CFU/mouse]	Average CFU in mice (thigh muscle tissue) [2, 3] [CFU/mouse]	Average CFU in mice (thigh muscle tissue) [2, 4] [CFU/mouse]	Average CFU in mice (thigh muscle tissue) [2, 5] [CFU/mouse]	Average CFU in mice (thigh muscle tissue) [2, 6] [CFU/mouse]	Average CFU in mice (thigh muscle tissue) [2, 7] [CFU/mouse]	Average CFU in mice (thigh muscle tissue) [2, 8] [CFU/mouse]	Average CFU in mice (lung tissue) [1, 9] [CFU/mouse]	Average CFU in mice (thigh muscle tissue) [2, 9] [CFU/mouse]
CCOc1ccc2c(c1C(=O)O)O[B-](O)(O)CO2 [Compound 15]	2.38E+06	3.73E+05	1.84E+05	6.83E+07	6.04E+06	7.67E+05	5.68E+06	2.06E+06	1.24E+06	1.65E+07	4.08E+06	2.02E+06		
C[C@@H](O)[C@H]1C(=O)N2C(C(=O)O)=C(S[C@@H]3CN[C@H](C(=O)N(C)C)C3)[C@H](C)[C@H]12 [Meropenem, meropenem, reference compound]													2.73E+08	4.83E+08
